{"source": "patent US10329289B2", "about": "“6,7-dihydro-5H-pyrrolo[3,4-B]pyridin-5-one allosteric modulators of the M4 muscarinic acetylcholine receptor” (Merck Sharp & Dohme Corp., priority 2015, dated 2019)"}
{"target": "T1, human M4 muscarinic acetylcholine receptor (Homo sapiens, UniProt P08173)", "T1 construct": "expressed in transfected cells; host or cells: CHO-K1", "T1 sequence (P08173 1-479)": "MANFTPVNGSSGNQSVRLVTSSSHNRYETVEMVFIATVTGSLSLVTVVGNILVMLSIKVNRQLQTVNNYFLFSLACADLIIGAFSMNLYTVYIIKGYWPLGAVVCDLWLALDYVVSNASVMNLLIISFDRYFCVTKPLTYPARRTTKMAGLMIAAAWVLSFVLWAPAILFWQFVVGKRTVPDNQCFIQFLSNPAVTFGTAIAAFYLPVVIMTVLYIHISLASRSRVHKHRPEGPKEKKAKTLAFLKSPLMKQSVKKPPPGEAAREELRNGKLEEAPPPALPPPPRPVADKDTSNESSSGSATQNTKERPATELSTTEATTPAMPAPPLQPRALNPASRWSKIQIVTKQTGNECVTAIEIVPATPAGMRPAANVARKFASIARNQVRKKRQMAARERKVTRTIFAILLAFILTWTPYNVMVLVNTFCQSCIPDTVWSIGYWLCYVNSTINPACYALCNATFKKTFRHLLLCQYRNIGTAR", "assay": "human FLIPR-based M4 PAM assay (Ca2+ mobilization, CHO-K1 cells with human M4 receptor and Gαqi5)", "assay_type": "cell-based", "conditions": "acetylcholine at 20% of maximum response, read-out: M4 PAM IP", "in_short": "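Calcium-mobilization (FLIPR) readout in dye-loaded CHO-K1 cells co-expressing human M4 receptor and Gαqi5. Potentiation measured against acetylcholine at a concentration giving 20% of maximal response, with an optional 70% addition; the reported value is the curve inflection point from a 4-parameter logistic fit.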", "units": {"EC50": "nM"}}
{"molecule": "Cc1cc2c(nc1N1CCC(Oc3ccc4c(c3)CCC4)CC1)CNC2=O", "note": "[Example 44, 2-(4-((2,3-dihydro-1H-inden-5-yl)oxy)piperidin-1-yl)-3-methyl-6,7-dihydro-5H-pyrrolo[3,4-b]pyridin-5-one]", "EC50": 130}
{"molecule": "Cc1cc2c(nc1N1CC[C@@H](Oc3cccc(C#N)c3)[C@@H](F)C1)CN(C)C2=O", "note": "[Example 45, 3-(((3S,4R)-1-(3,6-dimethyl-5-oxo-6,7-dihydro-5H-pyrrolo[3,4-b]pyridin-2-yl)-3-fluoropiperidin-4-yl)oxy)benzonitrile]", "EC50": 53}
{"molecule": "Cc1cc2c(nc1N1CC[C@@H](Oc3ccc4c(c3)COC4)[C@@H](F)C1)CN(C)C2=O", "note": "[Example 46, 2-((3S,4R)-4-((1,3-dihydro-2-benzofuran-5-yl)oxy)-3-fluoropiperidin-1-yl)-3,6-dimethyl-6,7-dihydro-5H-pyrrolo[3,4-b]pyridin-5-one]", "EC50": 32}
{"molecule": "COc1ccc(OC2CCN(c3nc4c(cc3C)C(=O)NC4)CC2)cc1", "note": "[Example 47, 2-(4-(4-methoxyphenoxy)piperidin-1-yl)-3-methyl-6,7-dihydro-5H-pyrrolo[3,4-b]pyridin-5-one]", "EC50": 41}
{"molecule": "Cc1cc2c(nc1N1CCC(Oc3cccc(S(C)(=O)=O)c3)CC1)CNC2=O", "note": "[Example 47A, 3-methyl-2-(4-(3-(methylsulfonyl)phenoxy)piperidin-1-yl)-6,7-dihydro-5H-pyrrolo[3,4-b]pyridin-5-one]", "EC50": 287}
{"molecule": "Cc1cc2c(nc1N1CCC(Oc3cnc4c(c3)COC4)CC1)CNC2=O", "note": "[Example 48, 2-(4-((5,7-dihydrofuro[3,4-b]pyridin-3-yl)oxy)piperidin-1-yl)-3-methyl-6,7-dihydro-5H-pyrrolo[3,4-b]pyridin-5-one]", "EC50": 61}
{"molecule": "Cc1cc2c(nc1N1CC[C@@H](Oc3cnc4c(c3)COC4)[C@H](F)C1)CNC2=O", "note": "[Example 48A, 2-((3R,4R)-4-((5,7-dihydrofuro[3,4-b]pyridin-3-yl)oxy)-3-fluoropiperidin-1-yl)-3-methyl-6,7-dihydro-5H-pyrrolo[3,4-b]pyridin-5-one]", "EC50": 67}
{"molecule": "Cc1cc2c(nc1N1CCC(Oc3cnc4c(c3)COC4)CC1)CN(C)C2=O", "note": "[Example 49, 2-(4-((5,7-dihydrofuro[3,4-b]pyridin-3-yl)oxy)piperidin-1-yl)-3,6-dimethyl-6,7-dihydro-5H-pyrrolo[3,4-b]pyridin-5-one]", "EC50": 94}
{"molecule": "Cc1cc2c(nc1N1CCC(Oc3cncc(C#N)c3)CC1)CNC2=O", "note": "[Example 50, 5-((1-(3-methyl-5-oxo-6,7-dihydro-5H-pyrrolo[3,4-b]pyridin-2-yl)piperidin-4-yl)oxy)nicotinonitrile]", "EC50": 657}
{"molecule": "COc1cccc(OC2CCN(c3nc4c(cc3C)C(=O)NC4)CC2)c1", "note": "[Example 51, 2-(4-(3-methoxyphenoxy)piperidin-1-yl)-3-methyl-6,7-dihydro-5H-pyrrolo[3,4-b]pyridin-5-one]", "EC50": 51}
{"molecule": "Cc1cc2c(nc1N1CCC(Oc3cnc4c(c3)COCC4)CC1)CNC2=O", "note": "[Example 52, 2-(4-((7,8-dihydro-5H-pyrano[4,3-b]pyridin-3-yl)oxy)piperidin-1-yl)-3-methyl-6,7-dihydro-5H-pyrrolo[3,4-b]pyridin-5-one]", "EC50": 238}
{"molecule": "Cc1cc2c(nc1N1CCC(Oc3cnc4c(c3)COCC4)CC1)CN(C)C2=O", "note": "[Example 53, 2-(4-((7,8-dihydro-5H-pyrano[4,3-b]pyridin-3-yl)oxy)piperidin-1-yl)-3,6-dimethyl-6,7-dihydro-5H-pyrrolo[3,4-b]pyridin-5-one]", "EC50": 449}
{"molecule": "CCOCCOC1CCN(c2nc3c(cc2C)C(=O)NC3)CC1", "note": "[Example 54, 2-(4-(2-ethoxyethoxy)piper-idin-1-yl)-3-methyl-6,7-dihydro-5H-pyrrolo[3,4-b]pyridin-5-one]", "EC50": 8760}
{"molecule": "CCOC1CCN(c2nc3c(cc2C)C(=O)NC3)CC1", "note": "[Example 55, 2-(4-ethoxypiperidin-1-yl)-3-methyl-6,7-dihydro-5H-pyrrolo[3,4-b]pyridin-5-one]", "EC50": 1120}
{"molecule": "COCCOC1CCN(c2nc3c(cc2C)C(=O)NC3)CC1", "note": "[Example 56, 2-(4-(2-methoxyethoxy)piperidin-1-yl)-3-methyl-6,7-dihydro-5H-pyrrolo[3,4-b]pyridin-5-one]", "EC50": 11200}
{"molecule": "COCc1cccc(OC2CCN(c3nc4c(cc3C)C(=O)NC4)CC2)c1", "note": "[Example 57, 2-(4-(3-(methoxymethyl)phenoxy)piperidin-1-yl)-3-methyl-6,7-dihydro-5H-pyrrolo[3,4-b]pyridin-5-one]", "EC50": 61}
{"molecule": "COCCOCc1cccc(OC2CCN(c3nc4c(cc3C)C(=O)NC4)CC2)c1", "note": "[Example 58, 2-(4-(3-((2-methoxyethoxy)meth-yl)phenoxy)piperi-din-1-yl)-3-methyl-6,7-dihydro-5H-pyrrolo[3,4-b]pyridin-5-one]", "EC50": 192}
{"molecule": "Cc1cc2c(nc1N1CCC(Oc3cnc4c(c3)CCC4)CC1)CNC2=O", "note": "[Example 59, 2-(4-((6,7-dihydro-5H-cyclopenta[b]pyridin-3-yl)oxy)piperidin-1-yl)-3-methyl-6,7-dihydro-5H-pyrrolo[3,4-b]pyridin-5-one]", "EC50": 123}
{"molecule": "COCCOc1ccc(O[C@@H]2CCN(c3nc4c(cc3C)C(=O)NC4)C[C@H]2F)cn1", "note": "[Example 60, 2-((3R,4R)-3-fluoro-4-((6-(2-methoxyethoxy)pyridin-3-yl)oxy)piperidin-1-yl)-3-methyl-6,7-dihydro-5H-pyrrolo[3,4-b]pyridin-5-one]", "EC50": 207}
{"molecule": "Cc1cc2c(nc1N1CCC(Oc3ccc(OC(C)C)nc3)CC1)CNC2=O", "note": "[Example 62, 2-(4-((6-isopropoxypyridin-3-yl)oxy)piperidin-1-yl)-3-methyl-6,7-dihydro-5H-pyrrolo[3,4-b]pyridin-5-one]", "EC50": 55}
{"molecule": "Cc1cc2c(nc1N1CCC(OCc3ccccc3)CC1)CNC2=O", "note": "[Example 63, 2-(4-(benzyloxy)piperidin-1-yl)-3-methyl-6,7-dihydro-5H-pyrrolo[3,4-b]pyridin-5-one]", "EC50": 145}
{"molecule": "Cc1cc2c(nc1N1CCC(OCC3(C)CC3(F)F)CC1)CNC2=O", "note": "(centres unmarked) [Example 64, 2-(4-((2,2-difluoro-1-methylcyclopropyl)methoxy)piperidin-1-yl)-3-methyl-6,7-dihydro-5H-pyrrolo[3,4-b]pyridin-5-one]", "EC50": 206}
{"molecule": "Cc1cc2c(nc1N1CCC(OCC3(F)CC3)CC1)CNC2=O", "note": "[Example 64A, 2-(4-((1-fluorocyclopropyl)methoxy)piperidin-1-yl)-3-methyl-6,7-dihydro-5H-pyrrolo[3,4-b]pyridin-5-one]", "EC50": 192}
{"molecule": "Cc1cc2c(nc1N1CC[C@@H](Oc3cnc4c(c3)COC4)[C@@H](F)C1)CNC2=O", "note": "[Example 65, 2-((3S,4R)-4-((5,7-dihydrofuro[3,4-b]pyridin-3-yl)oxy)-3-fluoropiperidin-1-yl)-3-methyl-6,7-dihydro-5H-pyrrolo[3,4-b]pyridin-5-one]", "EC50": 75}
{"molecule": "Cc1cc2c(nc1N1CCC(OCCC3(C)CC3)CC1)CNC2=O", "note": "[Example 65A, 3-methyl-2-(4-(2-(1-methylcyclopropyl)ethoxy)piperidin-1-yl)-6,7-dihydro-5H-pyrrolo[3,4-b]pyridin-5-one]", "EC50": 164}
{"molecule": "Cc1cncc(OC2CCN(c3nc4c(cc3C)C(=O)NC4)CC2)c1", "note": "[Example 66, 3-Methyl-2-(4-((5-methylpyridin-3-yl)oxy)piperidin-1-yl)-6,7-dihydro-5H-pyrrolo[3,4-b]pyridin-5-one]", "EC50": 84}
{"molecule": "Cc1cc2c(nc1N1CCC(Oc3ccc4c(c3)C(=O)N(C)C4)CC1)CNC2=O", "note": "[Example 67, 3-methyl-2-(4-((2-methyl-3-oxoisoindolin-5-yl)oxy)piperidin-1-yl)-6,7-dihydro-5H-pyrrolo[3,4-b]pyridin-5-one]", "EC50": 136}
{"molecule": "Cc1cc2c(nc1N1CCC(Oc3cccnc3)CC1)CNC2=O", "note": "[Example 68, 3-methyl-2-(4-(pyridin-3-yloxy)piperidin-1-yl)-6,7-dihydro-5H-pyrrolo[3,4-b]pyridin-5-one]", "EC50": 79}
{"molecule": "Cc1nc2ccc(OC3CCN(c4nc5c(cc4C)C(=O)NC5)CC3)cc2o1", "note": "[Example 69, 3-methyl-2-(4-((2-methylbenzo[d]oxazol-6-yl)oxy)piperidin-1-yl)-6,7-dihydro-5H-pyrrolo[3,4-b]pyridin-5-one]", "EC50": 88}
{"molecule": "Cc1cc2c(nc1N1CCC(Oc3cnc4[nH]ccc4c3)CC1)CNC2=O", "note": "[Example 70, 2-(4-((1H-pyrrolo[2,3-b]pyridin-5-yl)oxy)piperidin-1-yl)-3-methyl-6,7-dihydro-5H-pyrrolo[3,4-b]pyridin-5-one]", "EC50": 79}
{"molecule": "Cc1cc2c(nc1N1CCC(Oc3cccc(F)c3)CC1)CNC2=O", "note": "[Example 71]", "EC50": 42}
{"molecule": "Cc1cc2c(nc1N1CCC(Oc3ccc(F)cc3)CC1)CNC2=O", "note": "[Example 72, 2-(4-(4-fluorophenoxy)piperidin-1-yl)-3-methyl-6,7-dihydro-5H-pyrrolo[3,4-b]pyridin-5-one]", "EC50": 30}
{"molecule": "Cc1cc2c(nc1N1CCC(Oc3ccccc3Cl)CC1)CNC2=O", "note": "[Example 73, 2-(4-(2-chlorophenoxy)piperidin-1-yl)-3-methyl-6,7-dihydro-5H-pyrrolo[3,4-b]pyridin-5-one]", "EC50": 2250}
{"molecule": "Cc1cc2c(nc1N1CCC(Oc3cccc(Cl)c3)CC1)CNC2=O", "note": "[Example 74, 2-(4-(3-chlorophenoxy)piperidin-1-yl)-3-methyl-6,7-dihydro-5H-pyrrolo[3,4-b]pyridin-5-one]", "EC50": 46}
{"molecule": "Cc1cc2c(nc1N1CCC(Oc3ccccc3F)CC1)CNC2=O", "note": "[Example 75, 2-(4-(2-fluorophenoxy)piperidin-1-yl)-3-methyl-6,7-dihydro-5H-pyrrolo[3,4-b]pyridin-5-one]", "EC50": 236}
